Assay results reported in ChEMBL document CHEMBL4152339, “Design and synthesis of novel 1H-tetrazol-5-amine based potent antimicrobial agents: DNA topoisomerase IV and gyrase affinity evaluation supported by molecular docking studies” (Eur J Med Chem, 2018).
In brackets after ≈: the same amount, converted by molar mass.

Key:
[1] = Selectivity index, ratio of IC50 for human HaCaT cells to MIC for Bordetella bronchiseptica ATCC 4617; format: toxicity; settings: read-out: Selectivity Index
[2] = test system: A549; assay: Cytotoxicity activity against human A549 cells assessed as reduction in cell viability after 72 hrs by MTT assay; format: cell-based; settings: A549, 72 h
[3] = Selectivity index, ratio of IC50 for human HaCaT cells to MIC for Staphylococcus aureus NCTC 4163; format: toxicity; settings: read-out: Selectivity Index
[4] = test system: Bacillus spizizenii; assay: Antibacterial activity against Bacillus subtilis ATCC 6633 after 18 hrs by CLSI disc diffusion method; format: functional; settings: ATCC 6633, 18 h
[5] = Selectivity index, ratio of IC50 for human HaCaT cells to MIC for Enterococcus hirae ATCC 10541; format: toxicity; settings: read-out: Selectivity Index
[6] = test system: Micrococcus luteus; assay: Antibacterial activity against Micrococcus luteus ATCC 10240 after 18 hrs by CLSI disc diffusion method; format: functional; settings: ATCC 10240, 18 h
[7] = test system: Staphylococcus epidermidis; assay: Antibacterial activity against Staphylococcus epidermidis ATCC 35984 after 18 hrs by CLSI […] method; format: functional; settings: ATCC 35984, 18 h
[8] = test system: Bordetella bronchiseptica; assay: Antibacterial activity against Bordetella bronchiseptica ATCC 4617 after 18 hrs by CLSI disc diffusion method; format: functional; settings: ATCC 4617, 18 h
[9] = test system: Pseudomonas aeruginosa; assay: Antibacterial activity against Pseudomonas aeruginosa ATCC 27853 after 18 hrs by CLSI disc diffusion method; format: functional; settings: ATCC 27853, 18 h
[10] = test system: Micrococcus luteus; assay: Antibacterial activity against Micrococcus luteus ATCC 9341 after 18 hrs by CLSI disc diffusion method; format: functional; settings: ATCC 9341, 18 h
[11] = Selectivity index, ratio of IC50 for human HaCaT cells to MIC for Proteus vulgaris NCTC 4635; format: toxicity; settings: read-out: Selectivity Index
[12] = test system: Proteus vulgaris; assay: Antibacterial activity against Proteus vulgaris NCTC 4635 after 18 hrs by CLSI disc diffusion method; format: functional; settings: NCTC 4635, 18 h
[13] = test system: Enterococcus faecalis; assay: Antibacterial activity against Enterococcus faecalis ATCC 29212 after 18 hrs by CLSI disc diffusion method; format: functional; settings: ATCC 29212, 18 h
[14] = Selectivity index, ratio of IC50 for human HaCaT cells to MIC for Micrococcus luteus ATCC 10240; format: toxicity; settings: read-out: Selectivity Index
[15] = test system: Bacillus cereus; assay: Antibacterial activity against Bacillus cereus ATCC 11778 after 18 hrs by CLSI disc diffusion method; format: functional; settings: ATCC 11778, 18 h
[16] = Selectivity index, ratio of IC50 for human HaCaT cells to MIC for Escherichia coli ATCC 10538; format: toxicity; settings: read-out: Selectivity Index
[17] = Selectivity index, ratio of IC50 for human HaCaT cells to MIC for Bacillus subtilis ATCC 6633; format: toxicity; settings: read-out: Selectivity Index
[18] = test system: Staphylococcus epidermidis; assay: Antibacterial activity against Staphylococcus epidermidis ATCC 12228 after 18 hrs by CLSI disc diffusion method; format: functional; settings: ATCC 12228, 18 h
[19] = test system: Escherichia coli; assay: Antibacterial activity against Escherichia coli ATCC 10538 after 18 hrs by CLSI disc diffusion method; format: functional; settings: ATCC 10538, 18 h
[20] = test system: Pseudomonas aeruginosa; assay: Antibacterial activity against Pseudomonas aeruginosa ATCC 15442 after 18 hrs by CLSI disc diffusion method; format: functional; settings: ATCC 15442, 18 h
[21] = test system: Staphylococcus aureus; assay: Antibacterial activity against Staphylococcus aureus ATCC 6538 after 18 hrs by CLSI disc diffusion method; format: functional; settings: ATCC 6538, 18 h
[22] = test system: HaCaT; assay: Cytotoxicity activity against human HaCaT cells assessed as reduction in cell viability after 72 hrs by MTT assay; format: cell-based
[23] = test system: Enterococcus hirae; assay: Antibacterial activity against Enterococcus hirae ATCC 10541 after 18 hrs by CLSI disc diffusion method; format: functional; settings: ATCC 10541, 18 h
[24] = test system: Staphylococcus aureus; assay: Antibacterial activity against Staphylococcus aureus ATCC 25923 after 18 hrs by CLSI disc diffusion method; format: functional; settings: ATCC 25923, 18 h
[25] = test system: Staphylococcus aureus; assay: Antibacterial activity against Staphylococcus aureus NCTC 4163 after 18 hrs by CLSI disc diffusion method; format: functional; settings: NCTC 4163, 18 h

MIC [4]: 26 µM (≈ 8.12 µg/mL) | MIC [6]: 51 µM (≈ 15.9 µg/mL) | MIC [7]: 6 µM (≈ 1.87 µg/mL) | MIC [8]: 205 µM (≈ 64 µg/mL) | MIC [9]: 411 µM (≈ 128 µg/mL) | MIC [10]: 6 µM (≈ 1.87 µg/mL) | MIC [12]: 411 µM (≈ 128 µg/mL) | MIC [13]: 51 µM (≈ 15.9 µg/mL) | MIC [15]: 26 µM (≈ 8.12 µg/mL) | MIC [18]: 13 µM (≈ 4.06 µg/mL) | MIC [19]: 411 µM (≈ 128 µg/mL) | MIC [20]: 411 µM (≈ 128 µg/mL) | MIC [21]: 51 µM (≈ 15.9 µg/mL) | MIC [23]: 51 µM (≈ 15.9 µg/mL) | MIC [24]: 26 µM (≈ 8.12 µg/mL) | MIC [25]: 51 µM (≈ 15.9 µg/mL)
Compound: FC(F)(F)c1ccc(-n2nnnc2Nc2nccs2)cc1
selectivity ratio [1]: 0.39 | IC50 [2]: 76 µM | selectivity ratio [3]: 1.56 | selectivity ratio [5]: 1.56 | selectivity ratio [11]: 0.19 | selectivity ratio [14]: 1.56 | selectivity ratio [16]: 0.19 | selectivity ratio [17]: 3.07 | IC50 [22]: 80 µM
